Experiments:
Assay type in all cases: cell-based
Conditions in all cases: twenty-four hours after inoculation, combination assay
[1] = test system: methicillin-resistant Staphylococcus aureus (MRSA); test: In vitro growth inhibition on sheep blood agar (SBA) plates
Procedure: (§1) In vitro testing was conducted to measure the efficacy of WT13-12 at inhibiting the growth of clinically relevant bacteria. […] WT13-12 was streaked across half of a sheep blood agar (SBA) plate and allowed to dry for 15 minutes. The other side was streaked with the vehicle but not containing WT13-12. After drying, 50 μL of purified bacteria at 100,000 col/mL was streaked onto the control and treated sides of the sheep blood agar plates. After streaking, the plates were incubated at 37° C. for 48 hours. Growth was assessed at 24 and 48 hours post-inoculation. Percent inhibition was determined by measuring the treated side vs. the control side with the control side set at 100% growth.
(§2) Each component of WT13-12 was tested individually or in paired combination in the in vitro bacterial growth inhibition assay described above to determine the relative contribution of each component.

[2] = test system: Streptococcus agalactiae (Group B beta strep); test: In vitro growth inhibition on SBA plates
Procedure: as §1, §2

[3] = test system: Streptococcus pyogenes (Group A beta hemolytic strep); test: In vitro growth inhibition on SBA plates
Procedure: as §1, §2

| Structure (SMILES) | growth inhibition of MRSA versus control [1] | growth inhibition of S. agalactiae versus control [2] | growth inhibition of S. pyogenes versus control [3] |
| --- | --- | --- | --- |
| C=CCCCCCCCCC(=O)O [undecylenic acid] | no effect | significant effect | significant inhibitory effects |
| N=C(N)NCCC[C@H](N)C(=O)O [L-Arginine] | no effect | – | – |
